# Earlier results in US20220220558A1, “METHODS AND SYSTEMS FOR PROGNOSIS OF A PATIENT'S RESPONSE TO TREATMENT OF ANDROGENETIC SKIN DISORDERS” (priority 2008, published 2022).
# System: female androgenetic alopecia
# Conditions: clinical trials
compound,measurement,value
CC(C)(C)NC(=O)[C@H]1CC[C@H]2[C@@H]3CC[C@H]4NC(=O)C=C[C@]4(C)[C@H]3CC[C@]12C [finasteride],affect on hair re-growth in women,statistically not significant
